The record followed here is patent US20250032465A1, “METHODS OF TREATING CNS DISORDERS” (HANGZHOU HIGHLIGHTLL PHARMACEUTICAL CO., LTD, priority 2021, published 2025).

pIC50: −log10 of the molar value. “Also recorded” adds a separate entry of the source. Like-named read-outs stand apart in the source and are kept apart here.

Usually pIC50 stands for the negative decadic logarithm of the IC50, by convention in mol/L. Read a high pIC50 as a small IC50.

One data set concerns the target T1, JAK1 (Homo sapiens, UniProt P23458).
T1 construct: purchased Reaction Biology Corp, Malvern, PA (contract testing)
The experiment in a line: JAK1 cellular ELISA assay using PBMC cells (IL-6 stimulated STAT3 phosphorylation). It counts as cell-based. The note with it: IL-6 100 ng/ml, 25 min. As for the experimental part:
This testing was performed to test cellular JAK1 activity using the IL-6 stimulated STAT3 phosphorylation assay in PBMC cells. The testing was performed according to the following procedure: 1) Plate PBMC cells to 96-well plate at density of ˜300,000 cell/well; 2) Add different concentrations of test article to wells, maintain in incubator at 37° C. and 5% CO2 for 1 hour; 3) Add IL-6 (final concentration: 100 ng/ml) to stimulate for 25 min in the above incubator; 4) After stimulation, transfer the suspension to 1.5 mL tube, centrifuge at 200 g for 5 min, collect cells, add 100 μL 1× lysate, lyse on ice for 1 hour; 5) Centrifuge at 4° C. and 12000 rpm for 10 min, take the supernatant and analyze according to instructions of the ELISA kit. In this assay, compounds of Formulae (II) and (III) had IC50<300 nM.
(In general: In an ELISA, binding on a coated surface is turned into a signal by an enzyme label.)

Data set [1] can be described thus: Brain penetration in mice. Type of data set: in vivo, C57BL/6 mice. The note with it: male, mouse, 30 mg/kg oral gavage, 4-hour post-dosing. As for the experimental part: This testing was performed to test the ability of compounds to penetrate the blood-brain-barrier in mice. The testing was performed according to the following procedure: 1) for each compound, take 3 male C57BL/6 mice with body weight of 17-18 g, formulate compound using 0.5% HPMC/water suspension at concentration of 3 mg/ml; 2) After fasting overnight, administer compound at 30 mg/kg by oral gavage; 3) Take plasma samples at 1, 2, 4 hours post-dosing; 4) At 4-hour post-dosing, also take brain tissues and cerebrospinal fluid (CSF) fluid; 5) Analyze compound concentration in plasma, brain tissue, and CSF fluid using LC-MS/MS method.

In the next data set the test system is MOG35-55-EAE model. The experiment in a line: MOG35-55 induced experimental autoimmune encephalomyelitis (MOG35-55-EAE) model. Type of data set: in vivo, female C57BL/6 mice. An excerpt:
MOG-EAE is one of the most common and widely used animal models for multiple sclerosis, which is a chronic inflammatory disease in the central nervous system that is characterized by axon demyelination and degeneration. In this mouse model, animals were immunized with myelin oligodendrocyte glycoprotein (MOG) peptide in Complete Freund's Adjuvant (CFA) firstly and then boosted with Pertussis Toxin. Upon immunization, mice developed chronic inflammation in the central nervous system, which led to axon dysfunction, and associated movement disabilities and paralysis. The disease onset usually starts from Day 10 and lasts for 20-30 days. This model allows specific investigation of the neuroinflammatory signaling pathways and evaluation of the efficacy of novel anti-inflammatory therapies. […] Mortality and observed clinical signs were recorded for individual animals in detail. Body weight and disease activity index (DAI) were measured twice per week after disease induction and then every other day starting from Day 10 to the study end. The DAI was scored according to the scoring criteria: 0=normal; 1=loss of tail tone; 2=loss of tail tone and hind limb weakness; 3=severe weakness in both limbs/single limb paralysis; 4=paralysis of two or more limbs; 5=death. […] The body weights and disease score were measured by using StudyDirector™ software (version 3.1.399.19). […]

T1 sequence (P23458 whole entry): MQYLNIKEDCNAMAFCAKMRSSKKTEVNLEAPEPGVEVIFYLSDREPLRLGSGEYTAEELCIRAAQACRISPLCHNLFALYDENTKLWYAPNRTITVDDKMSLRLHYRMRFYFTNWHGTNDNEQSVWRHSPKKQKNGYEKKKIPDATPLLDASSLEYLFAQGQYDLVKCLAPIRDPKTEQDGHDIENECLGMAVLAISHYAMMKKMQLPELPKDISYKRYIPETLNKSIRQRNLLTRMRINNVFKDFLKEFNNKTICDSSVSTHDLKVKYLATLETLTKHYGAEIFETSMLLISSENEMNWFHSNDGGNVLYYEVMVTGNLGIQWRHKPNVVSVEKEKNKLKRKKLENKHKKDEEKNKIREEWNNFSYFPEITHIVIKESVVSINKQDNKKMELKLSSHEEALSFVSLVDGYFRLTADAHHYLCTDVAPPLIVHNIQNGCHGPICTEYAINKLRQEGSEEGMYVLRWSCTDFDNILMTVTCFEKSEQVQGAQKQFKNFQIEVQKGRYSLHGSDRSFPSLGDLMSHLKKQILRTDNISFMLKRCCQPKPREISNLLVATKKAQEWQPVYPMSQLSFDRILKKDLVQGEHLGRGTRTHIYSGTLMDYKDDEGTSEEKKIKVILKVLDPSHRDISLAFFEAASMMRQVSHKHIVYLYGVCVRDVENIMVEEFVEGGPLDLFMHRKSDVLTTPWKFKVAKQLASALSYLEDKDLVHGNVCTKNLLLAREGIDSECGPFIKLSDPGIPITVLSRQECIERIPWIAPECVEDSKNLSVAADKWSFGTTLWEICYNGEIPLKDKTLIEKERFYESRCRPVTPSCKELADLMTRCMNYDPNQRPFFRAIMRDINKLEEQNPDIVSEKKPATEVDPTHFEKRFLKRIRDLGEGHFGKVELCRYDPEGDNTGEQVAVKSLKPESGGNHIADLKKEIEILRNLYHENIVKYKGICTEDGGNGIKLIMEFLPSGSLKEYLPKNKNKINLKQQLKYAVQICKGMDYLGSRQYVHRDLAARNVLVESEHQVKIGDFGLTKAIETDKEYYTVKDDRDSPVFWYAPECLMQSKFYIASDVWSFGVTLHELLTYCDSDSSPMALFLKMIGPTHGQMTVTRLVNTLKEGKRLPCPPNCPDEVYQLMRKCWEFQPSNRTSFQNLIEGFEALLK

Consider `Cc1nc2cnc3ccoc3c2n1[C@H]1CC[C@H](CC#N)OC1` [Formula (II)], for which the pIC50 at JAK1 was over 6.52. In addition, the Kp at 4 h was over 0.15 in data set [1] (C57BL/6, CSF/plasma, read-out: CSF (ng/ml)/ Plasma (ng/ml)) and over 0.3 in data set [1] (C57BL/6, brain/plasma, read-out: Brain (ng/ml)/ Plasma (ng/ml)). For the same compound, the “Disease Activity Index (DAI)” value in the data set on MOG35-55-EAE model (30 mg/kg BID oral gavage from Day 10, vs vehicle, Days 10-26) is given as “reduced disease activity; also recorded: lower DAI”. Also, the Body weight loss result in the data set with MOG35-55-EAE model (30 mg/kg BID oral gavage, mice with EAE) is recorded as “significantly reduced body weight loss”.
